In PubChem BioAssay AID2305 (GlaxoSmithKline (GSK), 2010) one finds IC50 data, which are given here for 41 compounds.

In general, IC50 refers to the concentration needed to halve the response being measured. A low value points to higher potency.

This test has as its system P. falciparum 3D7 growth, pLDH absorbance. Kind of test: blood-stage malaria parasite growth potency – strain 3D7, dose response (AID 2305).
As to `COc1cccc(OC)c1C(=O)Nc1cccc(-c2nn3ccccc3c2-c2ccnc(Nc3cccc(F)c3)n2)c1`, the concentration for half-maximal inhibition (IC50) was 0.75 µM.

As for `CC(C)(C)C(=O)Nc1c(-c2cc(=O)oc3cc4c(cc23)CCC4)oc2ccccc12`, the half-inhibitory concentration (IC50) is 1.26 µM.

Regarding `COc1cccc(C(=O)NCc2n[nH]c(=S)n2-c2ccc(Cl)c(Cl)c2)c1`, the half-inhibitory concentration (IC50) amounted to 0.17 µM.

Regarding `CC(C)(C)c1nn(-c2ccc(Cl)cc2)c2[nH]c(=O)c(CNCc3ccc4c(c3)OCO4)cc12`, the half-maximal inhibitory concentration (IC50) is 0.81 µM.

In turn, `CCCCCn1c(Sc2ccc(C#N)c([N+](=O)[O-])c2)nnc1-c1ccccc1` had an IC50 of 0.86 µM.

Take `CCC(C)C(COC(=O)c1cc(OC)c(OC)c(OC)c1)N(C)CCN(C)C(COC(=O)c1cc(OC)c(OC)c(OC)c1)C(C)CC` (stereo unspecified): the concentration for half-maximal inhibition (IC50) is 0.95 µM.

The compound `c1ccc(CNCc2cccc(-c3ccc(-c4nc5ccccc5[nH]4)s3)c2)cc1` registered an IC50 of 0.82 µM.

Compound `COc1ccc2c(NN=CC=Cc3ccccc3)cc(C)nc2c1` yielded a half-maximal inhibitory concentration (IC50) of 0.84 µM.

In the case of `Cc1cc(C2CCN(CCCCNC(=O)c3ccc(-c4ccc(C(F)(F)F)cc4)cc3)CC2)c(C)cc1OCCOC1CCCCO1` (stereo unspecified), the IC50 is 0.79 µM.

For `COc1ccc(C(=O)CCC(=O)N(Cc2ccc(-c3ccc(CNCCc4ccccc4)cn3)cc2)C(C)CN(C)C)cc1F` (stereo unspecified), the IC50 was found to be 0.75 µM.

`CS(=O)(=O)c1ccc2c(c1)CCN(CCC1CCC(NC(=O)C(=Cc3cccc(C#N)c3)c3ccc(-c4ccccc4)cc3)CC1)CC2` (stereo unspecified) yielded an IC50 of 0.84 µM.

For `CC(C)CN1C(=O)c2ccc(C(=O)Nc3nccs3)cc2C1=O`, the IC50 worked out at 0.97 µM.

As to `COc1ccc(CNCc2ccccc2)cc1-c1ccc(S(=O)(=O)NCCN2CCCC2)c(F)c1`, the 50% inhibitory concentration (IC50) was 1.14 µM.

Compound `NS(=O)(=O)c1ccc(CNc2ccc3ncc(-c4ccc(OC(F)(F)F)cc4)n3n2)cc1` showed an IC50 of 0.58 µM.

In turn, `O=C(Nc1cccc(-c2cccc(-c3nc4ccc(F)cc4[nH]3)c2)c1)Nc1ccc(F)c(F)c1F` registered an IC50 of 0.09 µM.

With `COc1ccc(CNc2ccnc(-n3cnc4cc(C)c(C)cc43)n2)cc1Cl`, the half-inhibitory concentration (IC50) was determined as 0.27 µM.

`COc1cc(C(=O)NC2CCC(CN3CCC(c4c[nH]c5ccccc45)CC3)CC2)cc(Cl)n1` (stereo unspecified) showed a 50% inhibitory concentration (IC50) of 0.69 µM.

Regarding `O=C(Nc1ccccc1)N(Cc1ccccc1-c1cccc(CNCc2ccc3c(c2)OCO3)c1)C1CCN(Cc2ccccc2)CC1`, the IC50 amounted to 0.11 µM.

Compound `Cc1cccc2[nH]c(-c3ccc(-c4ccc(NC(=O)Nc5ccc(F)c(F)c5F)cc4)s3)nc12` came in with an IC50 of 0.18 µM.

With `NC1=NC(=O)C(=Cc2cn(-c3ccccc3)nc2-c2cccc(S(=O)(=O)N3CCCC3)c2)S1`, the half-maximal inhibitory concentration (IC50) worked out at 1.14 µM.

Regarding `CN(C)C(=S)NN=Cc1cccc(O)c1O`, the IC50 came to 0.87 µM.

For the compound `Cc1ccc(CN2CCC(C(=O)Nc3ccc(-c4cc5ccccc5[nH]4)cc3)CC2)o1`, the half-maximal inhibitory concentration (IC50) was determined as 1.42 µM.

Compound `Fc1c(CNCC2CCN(CC3CCCCC3)CC2)cccc1C(F)(F)F` gave a half-maximal inhibitory concentration (IC50) of 0.9 µM.

Consider `O=C(/C=C/c1ccc(C(F)(F)F)cc1)NCCCCCN1CCCN(C(=O)Nc2ccc(F)c(Cl)c2)CC1`, for which the 50% inhibitory concentration (IC50) was 0.37 µM.

On to `COc1cccc2cc(C(=O)N[C@@H](CC(C)C)C(=O)N[C@H](/C=N/NC(=O)OC(C)(C)C)CC(=O)OC(C)(C)C)oc12`, for which the IC50 was determined as 0.4 µM.

Consider `Cc1ccc(NC(=O)c2cc(Br)cc(N3CCC(N(C)C)CC3)c2)cc1F`, for which the IC50 was 0.84 µM.

With `CCOC(=O)[C@H](Cc1cccc2ccccc12)NC(=O)[C@H](CCC(=O)OC(C)(C)C)NC(=O)c1ccc(N(C)Cc2cnc3nc(N)nc(N)c3n2)cc1`, the half-maximal inhibitory concentration (IC50) was 0.66 µM.

`N#Cc1ccc(-c2ccc(C(=O)NCCCCN3CCC(c4ccncc4)CC3)cc2)cc1` gave an IC50 of 0.81 µM.

In the case of `CC(=O)Nc1ccc(S(=O)(=O)Nc2c(C)cc(Cc3cnc(N)nc3N)cc2C)cc1`, the IC50 turned out to be 1 µM.

`COc1ccc(C2C(C(=O)Nc3cc(OC)c(OC)c(OC)c3)c3cc(OC)c(OC)cc3C(=O)N2C)cc1` (stereo unspecified) returned an IC50 of 0.8 µM.

Consider `CC(C)[C@H](NC(=O)c1c(CN2CCC(N3CCCCC3)CC2)c(-c2ccccc2)nc2cc(O)ccc12)c1ccccc1`, for which the IC50 was 0.74 µM.

Compound `CC(=O)CSC(C=Cc1ccc(N(C)C)cc1)=Nc1ccccc1` gave an IC50 of 1.12 µM.

`COc1ccc(Cc2nc3c(n2C(C)=O)SC(c2ccc(Cl)c(Cl)c2)=NN3C(C)=O)cc1` displayed an IC50 of 0.81 µM.

Compound `Cc1ccc(C(=O)Cn2nc(-c3ccc(C)c(S(=O)(=O)N4CCCCC4)c3)ccc2=O)cc1` came in with a half-maximal inhibitory concentration (IC50) of 0.33 µM.

The compound `COc1c(C2=CCN(CCCCNC(=O)c3ccc(-c4ccc(C#N)cc4)cc3)CC2)c(C)cc2c1C(C)(C)CCC2(C)C` returned an IC50 of 0.95 µM.

As for `Nc1nccc2ccc(-c3cccc(O)c3)cc12`, the half-maximal inhibitory concentration (IC50) is 0.64 µM.

With `CCC(=O)c1c(C)n(-c2ncnc3c2nc(C)n3-c2ccc(C)cc2C)c2ccccc12`, the IC50 worked out at 0.65 µM.

For `COc1ccc2c(c1)Sc1ccccc1C(N1CCN(CCO)CC1)C2` (stereo unspecified), the IC50 was found to be 1.39 µM.

Regarding `Cc1cc(N[C@@H](Cc2ccccc2)C(=O)Nc2ccccc2)nc(NCCc2ccccn2)n1`, the half-maximal inhibitory concentration (IC50) was found to be 0.87 µM.

`C[C@@H]([C@@H](CCCCc1ccccc1)C(=O)N[C@H](C(=O)Nc1cccnc1)C(C)(C)C)N(O)C=O` registered an IC50 of 0.93 µM.

Consider `O=C(Nc1cccc(-c2nn3ccccc3c2-c2ccnc(Nc3cccc(F)c3)n2)c1)c1c(F)ccc(F)c1Cl`, for which the 50% inhibitory concentration (IC50) was 1.14 µM.
